Data from ChEMBL document CHEMBL6087462, “Cuminaldehyde Potentiates Antiproteolytic Peptide Efficacy via Parallel Pathways of Enhanced Inner Membrane-Damaging Activity and Inhibition of Bacterial Energy Metabolism” (J Med Chem, 2025).

Key:
Escherichia coli [1] = experiment: Antimicrobial activity against Escherichia coli K99 assessed as cuminaldehyde MIC by CLSI based broth microdilution method; format: functional
Escherichia coli [2] = experiment: Synergistic antimicrobial activity against Escherichia coli 25922 assessed as fractional inhibitory concentration index in presence of perillaldehyde by checkerboard broth microdilution assay; format: functional
Escherichia coli [3] = experiment: Synergistic antimicrobial activity against Escherichia coli 25922 assessed as fractional inhibitory concentration index in presence of citral by checkerboard broth microdilution assay; format: functional
Escherichia coli [4] = experiment: Synergistic antimicrobial activity against Escherichia coli 078 assessed as fractional inhibitory concentration index in presence of citronellal by checkerboard broth microdilution assay; format: functional, 78
Salmonella typhimurium [5] = experiment: Synergistic antimicrobial activity against Salmonella typhimurium 14028 assessed as fractional inhibitory concentration index in presence of thymol by checkerboard broth microdilution assay; format: functional, Salmonella enterica subsp. enterica serovar Typhimurium
[6] = tested on: Staphylococcus epidermidis; experiment: Synergistic antimicrobial activity against Staphylococcus epidermidis 12228 assessed as fractional inhibitory concentration index in presence of citral by checkerboard broth microdilution assay; format: functional
Escherichia coli [7] = experiment: Synergistic antimicrobial activity against Escherichia coli 25922 assessed as fractional inhibitory concentration index in presence of carvacrol by checkerboard broth microdilution assay; format: functional
Escherichia coli [8] = experiment: Synergistic antimicrobial activity against Escherichia coli K99 assessed as fractional inhibitory concentration by checkerboard broth microdilution assay; format: functional
Escherichia coli [9] = experiment: Synergistic antimicrobial activity against Escherichia coli K88 assessed as fractional inhibitory concentration index in presence of perillaldehyde by checkerboard broth microdilution assay; format: functional
Escherichia coli [10] = experiment: Synergistic antimicrobial activity against Escherichia coli UB 1005 assessed as fractional inhibitory concentration by checkerboard broth microdilution assay; format: functional
Escherichia coli [11] = experiment: Antimicrobial activity against Escherichia coli K99 assessed as reduction in microbial growth in presence of cuminaldehyde by CLSI based broth microdilution method; format: functional
Pseudomonas aeruginosa [12] = experiment: Antimicrobial activity against Pseudomonas aeruginosa ATCC 27853 assessed as reduction in microbial growth by CLSI based broth microdilution method; format: functional
Salmonella typhimurium [13] = experiment: Antimicrobial activity against Salmonella typhimurium ATCC 14028 assessed as reduction in microbial growth in presence of cuminaldehyde by CLSI based broth microdilution method; format: functional, Salmonella enterica subsp. enterica serovar Typhimurium; conditions: Salmonella enterica
[14] = tested on: Staphylococcus epidermidis; experiment: Synergistic antimicrobial activity against Staphylococcus epidermidis 12228 assessed as fractional inhibitory concentration index in presence of citronellal by checkerboard broth microdilution assay; format: functional
[15] = Synergistic antimicrobial activity against Salmonella enterica subsp. enterica serovar Pullorum 7913 assessed as fractional inhibitory concentration index in presence of citral by checkerboard broth microdilution assay; format: functional
Escherichia coli [16] = experiment: Synergistic antimicrobial activity against Escherichia coli 078 assessed as fractional inhibitory concentration index in presence of cuminaldehyde by checkerboard broth microdilution assay; format: functional, 78
Salmonella typhimurium [17] = experiment: Synergistic antimicrobial activity against Salmonella typhimurium 14028 assessed as fractional inhibitory concentration index in presence of carvacrol by checkerboard broth microdilution assay; format: functional, Salmonella enterica subsp. enterica serovar Typhimurium
[18] = Synergistic antimicrobial activity against Salmonella enterica subsp. enterica serovar Pullorum 7913 assessed as fractional inhibitory concentration index in presence of citronellal by checkerboard broth microdilution assay; format: functional
Pseudomonas aeruginosa [19] = experiment: Antimicrobial activity against Pseudomonas aeruginosa ATCC 27853 assessed as cuminaldehyde MIC by CLSI based broth microdilution method; format: functional
Staphylococcus aureus [20] = experiment: Synergistic antimicrobial activity against Staphylococcus aureus 25923 assessed as fractional inhibitory concentration index in presence of thymol by checkerboard broth microdilution assay; format: functional
Escherichia coli [21] = experiment: Synergistic antimicrobial activity against Escherichia coli K99 assessed as fractional inhibitory concentration index in presence of perillaldehyde by checkerboard broth microdilution assay; format: functional
Escherichia coli [22] = experiment: Antimicrobial activity against Escherichia coli K99 assessed as reduction in microbial growth by CLSI based broth microdilution method; format: functional
[23] = Antimicrobial activity against Salmonella enterica subsp. enterica serovar Pullorum ATCC 7913 assessed as reduction in microbial growth by CLSI based broth microdilution method; format: functional
Enterococcus faecalis [24] = experiment: Antimicrobial activity against Enterococcus faecalis ATCC 29212 assessed as cuminaldehyde MIC by CLSI based broth microdilution method; format: functional
Pseudomonas aeruginosa [25] = experiment: Synergistic antimicrobial activity against Pseudomonas aeruginosa 27853 assessed as fractional inhibitory concentration index in presence of citronellal by checkerboard broth microdilution assay; format: functional
Pseudomonas aeruginosa [26] = experiment: Synergistic antimicrobial activity against Pseudomonas aeruginosa ATCC 27853 assessed as fractional inhibitory concentration by checkerboard broth microdilution assay; format: functional
Escherichia coli [27] = experiment: Antimicrobial activity against Escherichia coli K88 assessed as cuminaldehyde MIC by CLSI based broth microdilution method; format: functional
Staphylococcus aureus [28] = experiment: Antimicrobial activity against Staphylococcus aureus ATCC 29213 assessed as cuminaldehyde MIC by CLSI based broth microdilution method; format: functional
Escherichia coli [29] = experiment: Synergistic antimicrobial activity against Escherichia coli K88 assessed as fractional inhibitory concentration by checkerboard broth microdilution assay; format: functional
Escherichia coli [30] = experiment: Synergistic antimicrobial activity against Escherichia coli K88 assessed as fractional inhibitory concentration index in presence of cuminaldehyde by checkerboard broth microdilution assay; format: functional
Staphylococcus aureus [31] = experiment: Synergistic antimicrobial activity against Staphylococcus aureus 29213 assessed as fractional inhibitory concentration index in presence of carvacrol by checkerboard broth microdilution assay; format: functional
Salmonella typhimurium [32] = experiment: Synergistic antimicrobial activity against Salmonella typhimurium 7731 assessed as fractional inhibitory concentration index in presence of cuminaldehyde by checkerboard broth microdilution assay; format: functional, Salmonella enterica subsp. enterica serovar Typhimurium
Staphylococcus aureus [33] = experiment: Synergistic antimicrobial activity against Staphylococcus aureus 43300 assessed as fractional inhibitory concentration index in presence of cuminaldehyde by checkerboard broth microdilution assay; format: functional
Enterococcus faecalis [34] = experiment: Synergistic antimicrobial activity against Enterococcus faecalis 29212 assessed as fractional inhibitory concentration index in presence of citronellal by checkerboard broth microdilution assay; format: functional
Staphylococcus aureus [35] = experiment: Antimicrobial activity against Staphylococcus aureus 43300 assessed as cuminaldehyde MIC by CLSI based broth microdilution method; format: functional
Pseudomonas aeruginosa [36] = experiment: Synergistic antimicrobial activity against Pseudomonas aeruginosa 27853 assessed as fractional inhibitory concentration index in presence of perillaldehyde by checkerboard broth microdilution assay; format: functional
Pseudomonas aeruginosa [37] = experiment: Antimicrobial activity against Pseudomonas aeruginosa ATCC 27853 assessed as reduction in microbial growth in presence of cuminaldehyde by CLSI based broth microdilution method; format: functional
Escherichia coli [38] = experiment: Antimicrobial activity against Escherichia coli K88 assessed as reduction in microbial growth in presence of cuminaldehyde by CLSI based broth microdilution method; format: functional
[39] = Antimicrobial activity against Salmonella enterica subsp. enterica serovar Pullorum ATCC 7913 assessed as reduction in microbial growth in presence of cuminaldehyde by CLSI based broth microdilution method; format: functional
Escherichia coli [40] = experiment: Synergistic antimicrobial activity against Escherichia coli K99 assessed as fractional inhibitory concentration index in presence of carvacrol by checkerboard broth microdilution assay; format: functional
Staphylococcus aureus [41] = experiment: Synergistic antimicrobial activity against Staphylococcus aureus 43300 assessed as fractional inhibitory concentration by checkerboard broth microdilution assay; format: functional
Escherichia coli [42] = experiment: Synergistic antimicrobial activity against Escherichia coli UB1005 assessed as fractional inhibitory concentration index in presence of carvacrol by checkerboard broth microdilution assay; format: functional
[43] = tested on: Staphylococcus epidermidis; experiment: Antimicrobial activity against Staphylococcus epidermidis ATCC 12228 assessed as reduction in microbial growth in presence of cuminaldehyde by CLSI based broth microdilution method; format: functional
Escherichia coli [44] = experiment: Synergistic antimicrobial activity against Escherichia coli UB1005 assessed as fractional inhibitory concentration index in presence of thymol by checkerboard broth microdilution assay; format: functional

For `CC[C@H](C)[C@H](NC(=O)[C@@H](NC(=O)[C@@H](CCCNC(=N)N)NC(=O)[C@H](C)NC(=O)[C@H](C)NC(=O)[C@@H](N)Cc1cccc2ccccc12)[C@@H](C)CC)C(=O)N[C@@H](CC(C)C)C(=O)N[C@H](CCCNC(=N)N)C(=O)N[C@@H](Cc1c[nH]c2ccccc12)C(=O)N[C@H](CCCNC(=N)N)C(=O)N[C@@H](Cc1ccccc1)C(=O)N[C@@H](CCCNC(=N)N)C(=O)O`, the MIC (Escherichia coli [1]) was 1020 µg/mL, the “fractional inhibitory concentration index (FICI)” value (Escherichia coli [2]) was 0.156 and the “fractional inhibitory concentration index (FICI)” value (Escherichia coli [3]) was 0.25. For the same compound, the “fractional inhibitory concentration index (FICI)” value (Escherichia coli [4]) was 0.156, the “fractional inhibitory concentration index (FICI)” value (Salmonella typhimurium [5]) was 0.313 and the “fractional inhibitory concentration index (FICI)” value [6] was 0.5. The “fractional inhibitory concentration index (FICI)” value (Escherichia coli [7]) was 0.5, the FIC (Escherichia coli [8]) was 0.25 and the “fractional inhibitory concentration index (FICI)” value (Escherichia coli [9]) was 0.375. The FIC (Escherichia coli [10]) was 0.125, the MIC (Escherichia coli [11]) was 0.25 µg/mL and the MIC (Pseudomonas aeruginosa [12]) was 32 µg/mL. The MIC (Salmonella typhimurium [13]) was 0.5 µg/mL, the “fractional inhibitory concentration index (FICI)” value [14] was 0.25 and the “fractional inhibitory concentration index (FICI)” value [15] was 0.25. For the same compound, the “fractional inhibitory concentration index (FICI)” value (Escherichia coli [16]) was 0.125, the “fractional inhibitory concentration index (FICI)” value (Salmonella typhimurium [17]) was 0.5 and the “fractional inhibitory concentration index (FICI)” value [18] was 0.25. The MIC (Pseudomonas aeruginosa [19]) was 512 µg/mL, the “fractional inhibitory concentration index (FICI)” value (Staphylococcus aureus [20]) was 0.25 and the “fractional inhibitory concentration index (FICI)” value (Escherichia coli [21]) was 0.375. The MIC (Escherichia coli [22]) was 8 µg/mL, the MIC [23] was 16 µg/mL and the MIC (Enterococcus faecalis [24]) was 512 µg/mL. The “fractional inhibitory concentration index (FICI)” value (Pseudomonas aeruginosa [25]) was 0.254, the FIC (Pseudomonas aeruginosa [26]) was 0.125 and the MIC (Escherichia coli [27]) was 1020 µg/mL. For the same compound, the MIC (Staphylococcus aureus [28]) was 512 µg/mL, the FIC (Escherichia coli [29]) was 0.063 and the “fractional inhibitory concentration index (FICI)” value (Escherichia coli [30]) was 0.125. The “fractional inhibitory concentration index (FICI)” value (Staphylococcus aureus [31]) was 0.313, the “fractional inhibitory concentration index (FICI)” value (Salmonella typhimurium [32]) was 0.125 and the “fractional inhibitory concentration index (FICI)” value (Staphylococcus aureus [33]) was 0.375. The “fractional inhibitory concentration index (FICI)” value (Enterococcus faecalis [34]) was 0.375, the MIC (Staphylococcus aureus [35]) was 1020 µg/mL and the “fractional inhibitory concentration index (FICI)” value (Pseudomonas aeruginosa [36]) was 0.141. The MIC (Pseudomonas aeruginosa [37]) was 2 µg/mL, the MIC (Escherichia coli [38]) was 2 µg/mL and the MIC [39] was 0.5 µg/mL. The “fractional inhibitory concentration index (FICI)” value (Escherichia coli [40]) was 0.5, the FIC (Staphylococcus aureus [41]) was 0.25 and the “fractional inhibitory concentration index (FICI)” value (Escherichia coli [42]) was 0.313. For the same compound, the MIC [43] was 4 µg/mL and the “fractional inhibitory concentration index (FICI)” value (Escherichia coli [44]) was 0.25.
